The test system of assay [1] is patients with PoPH. The assay is described as follows: Post-hoc: MELD exception eligibility (mPAP/PVR). Format: in vivo, human. The procedure:
Post-Hoc, Exploratory Criteria: • Proportion of patients with NT-proBNP decrease from above 300 ng/L to below this threshold • Odds ratio for improvement to a more favorable liver transplant perioperative risk category • Odds ratio for becoming eligible for the MELD exception • Odds ratio for improvement to a more favorable waitlist mortality risk category
Risk categories related to liver transplant (transplant perioperative risk classification, MELD exception eligibility and waitlist mortality risk) were analyzed descriptively by treatment group using shift tables from baseline to Week 12 with categories as defined in Example 1.
LT perioperative risk classification, MELD exception eligibility, and waitlist mortality analyses were performed after the database lock and SDTMs delivery for the Double-Blind period. Number (%) of patients in following categories were summarized and presented in shift tables. The estimated odds ratio for risk improvement and corresponding 95% confidence intervals were obtained from an exact logistic regression (macitentan vs placebo) with factors for treatment and risk category at baseline.
In general, liver grafts are attributed in priority to patients who need a liver transplant the most urgently. This assessment lies mostly on the Model for End-stage Liver Disease (MELD) score: the higher the score, the higher the patient's priority on the waiting list. In PoPH, by the time MELD score is high enough to obtain a liver graft, the hemodynamic state is generally too severely impaired for the procedure. In the US, a PoPH MELD exception rule (MELD exception) is in place to facilitate access to a liver graft to patients with PoPH who attain mPAP ≤[…] and PVR ≤400 dyn·sec·cm^−5 with PAH treatment. Patients are priority-ranked on the waitlist with a higher MELD score than their actual score. This allows obtaining a liver graft at a time when liver impairment is moderate, before cardiopulmonary impairment becomes a contraindication to transplant.

Assay [2] deals with patients with PoPH. The assay is described as follows: PORTICO: Borg dyspnea index after 6MWT. Format: in vivo, human. Particulars: DB period. The protocol: (iv) 6-minute walk test, including Borg dyspnea index: The 6MWT was performed at Screening, Baseline (Visit 2/Randomization), and then every Visit until EOT-DB or EOT-OL, whichever came last. It is a non-encouraged test that measures the distance walked by the patient in six minutes. It is important that for each individual patient the 6MWT was conducted under the same conditions throughout the study (e.g., same location, same tester, same time of day, with or without nasal oxygen therapy and where applicable with same flow rate as Baseline). The Borg dyspnea index was evaluated after each 6MWT. It rates dyspnea on a scale from 0 to 10.
Double-blind treatment period: Changes from baseline to Week 12 in HVPG/HVPG (central review) and Borg dyspnea index (related to the DB treatment period) are summarized by treatment group in the FAS using descriptive statistics.

Take `CCCNS(=O)(=O)Nc1ncnc(OCCOc2ncc(Br)cn2)c1-c1ccc(Br)cc1` [macitentan, N-[5-(4-Bromophenyl)-6-[2-[(5-bromo-2-pyrimidinyl)oxy]ethoxy]-4-pyrimidinyl]-N′-propylsulfamide]: the “Liver transplant (MELD exception) eligibility based on mPAP/PVR: Week 12 Category 2 (mPAP ≤ 35 and PVR ≤ 400 dyn · sec/cm^5 = NO)” value in assay [1] (Baseline Category 1 (n = 1), Full analysis set, 10 mg, N = 43) is listed as 0 n (%). In assay [1] (Total, Full analysis set, 10 mg, N = 43), the “Liver transplant (MELD exception) eligibility based on mPAP/PVR: Week 12 Category 1 (mPAP ≤ 35 and PVR ≤ 400 dyn · sec/cm^5 = YES)” value is on record as 9 n (%). Also, in assay [1] (Week 12, exact logistic regression), the “Odds of becoming eligible for the MELD exception, macitentan vs placebo” value stood at 4.51 times. For the same compound, in assay [1] (after 12 weeks, FAS no imputation, 8 patients), the “Patients not meeting MELD exception criteria at baseline who met them (mPAP ≤35 mmHg and PVR ≤400 dyn·sec·cm^−5)” value is on record as 18.6%. Moreover, the “Liver transplant eligibility: Between-treatment odds ratio for improvement, OR” value in assay [1] (macitentan vs placebo, exact logistic regression, 95% CI 0.822, 46.462, p-value 0.0958) is reported as 4.512. The “Change in Borg dyspnea score over time” value in assay [2] was “no change”.
